This is an account of results in PMC10954600, “A novel laccase from Trametes polyzona with high performance in the decolorization of textile dyes” (AMB Express, 2024).

The assay concerns TP-Lac2. The note with it: 25 mM tartrate buffer, pH 3.5, 50 °C; 0.05-1.5 mM ABTS.

For `CCn1c(=NN=c2sc3cc(S(=O)(=O)O)ccc3n2CC)sc2cc(S(=O)(=O)O)ccc21` [ABTS], the Km (as a rule, the substrate concentration at which the rate is half of its maximum) turned out to be 250 ± 40 µM.
